± gives the standard deviation of the averaged measurements.
Assays:
Test in all cases: LOEC (log10 uM (lowest observed effect concentration))
[1] = compound: OCCCC(F)(F)C(F)(F)C(F)(F)C(F)(F)C(F)(F)C(F)(F)C(F)(F)F [7:3 Fluorotelomer alcohol]
Experimental: (§1)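 BioMAP Diversity Plus panel in human primary cell co-cultures, 4 concentrations in duplicate blinded samples. Responses are log10 fold change versus DMSO control, processed with tcpl v2.1.0. A hit is called when responses at any concentration exceed the cutoff (the larger of 3*bmad or log10(1.2)); the lowest observed effect concentration (modl_ga, log10 uM) is reported for hits.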

Perfluorodecanoic acid = compound: O=C(O)C(F)(F)C(F)(F)C(F)(F)C(F)(F)C(F)(F)C(F)(F)C(F)(F)C(F)(F)C(F)(F)F [Perfluorodecanoic acid]
Experimental: as §1

[2] = compound: C[N+](C)(C)CCCNS(=O)(=O)C(F)(F)C(F)(F)C(F)(F)C(F)(F)C(F)(F)C(F)(F)C(F)(F)C(F)(F)F [Perfluorooctanesulfonamido ammonium iodide]
Experimental: as §1

[3] = compound: CCN(CCO)S(=O)(=O)C(F)(F)C(F)(F)C(F)(F)C(F)(F)C(F)(F)C(F)(F)C(F)(F)C(F)(F)F [N-Ethyl-N-(2-hydroxyethyl)perfluorooctanesulfonamide]
Experimental: as §1

[4] = compound: OCCC(F)(F)C(F)(F)C(F)(F)C(F)(F)C(F)(F)C(F)(F)F [6:2 Fluorotelomer alcohol]
Experimental: as §1

Test System | LOEC (log10 uM) [1] | LOEC (log10 uM) (Perfluorodecanoic acid) | LOEC (log10 uM) [2] | LOEC (log10 uM) [3] | LOEC (log10 uM) [4]
LPS IL8 down | 1.78 | 1.78 | 1.3 |  | 
hDFCGF TIMP2 up |  |  | 1.07 ± 0.32 | 0.845 | 
3C Thrombomodulin up |  |  |  | 1.3 | 
3C uPAR down | 1.78 | 1.78 |  |  | 1.78
BT xIL17A down | 1.3 |  | 1.78 | 1.3 | 
BF4T SRB down | 1.78 | 1.3 |  |  | 
BE3C SRB down | 1.78 | 1.3 |  | 1.78 | 
3C IL8 down | 1.78 | 1.78 | 1.78 |  | 
BE3C MMP9 down | 1.78 | 1.3 |  | 1.54 ± 0.34 | 
SAg Proliferation down | 1.3 | 1.78 | 1.78 | 1.3 | 1.78
KF3CT MCP1 down | 1.54 ± 0.34 | 1.07 ± 0.32 |  |  | 
LPS Eselectin down | 1.78 | 1.78 |  |  | 
MyoF IL8 down |  |  |  | 0.845 | 
hDFCGF MCSF up |  |  | 1.78 |  | 
LPS PGE2 down |  | 1.78 | 1.3 |  | 
BF4T tPA up |  |  |  | 1.78 | 
hDFCGF PAI1 down | 1.3 | 1.54 ± 0.34 | 1.78 | 1.54 ± 0.34 | 1.78
CASM3C SAA down | 1.78 |  |  |  | 
KF3CT PAI1 down | 1.3 | 1.3 | 1.78 | 0.845 | 
BT xIL2 down | 1.3 |  | 1.78 | 1.3 | 
IMphg ESelectin up |  |  |  | 0.845 | 
SAg MCP1 down | 1.54 ± 0.34 | 1.78 |  | 1.54 ± 0.34 | 
MyoF TIMP1 down | 1.78 | 1.78 |  |  | 
IMphg VCAM1 down |  | 1.78 | 1.54 ± 0.34 |  | 
CASM3C SRB down | 1.54 ± 0.34 |  |  | 1.3 | 
CASM3C MCSF down | 1.54 ± 0.34 |  |  |  | 

Test System | LOEC (log10 uM) [1] | LOEC (log10 uM) (Perfluorodecanoic acid) | LOEC (log10 uM) [2] | LOEC (log10 uM) [3] | LOEC (log10 uM) [4]
BF4T IL8 down | 1.78 |  |  |  | 
BE3C uPAR down | 1.78 | 1.3 |  | 1.78 | 
4H VEGFRII up |  |  | 1.78 |  | 
MyoF bFGF down | 1.78 | 1.78 | 1.78 |  | 
KF3CT SRB down | 1.54 ± 0.34 | 1.78 | 1.78 |  | 
BE3C EGFR down | 1.78 |  |  | 1.78 | 
hDFCGF IL8 down | 1.3 | 1.78 | 1.78 |  | 1.78
BE3C uPA down | 1.78 | 1.3 |  | 1.78 | 
3C MIG down | 1.78 | 1.78 |  |  | 1.78
BF4T Keratin818 down | 1.78 | 1.3 | 1.78 |  | 
4H uPAR down | 1.78 | 1.78 |  |  | 
BE3C MMP1 down | 1.78 | 1.3 |  |  | 
CASM3C MCP1 down | 1.3 |  |  |  | 
hDFCGF CollagenI down | 1.3 |  |  |  | 1.78
KF3CT ICAM1 down | 1.54 ± 0.34 | 1.78 |  |  | 
KF3CT IL8 down | 1.78 |  |  | 0.845 | 
BF4T IL1a down | 1.78 | 1.54 ± 0.34 | 1.78 |  | 
LPS TissueFactor up |  |  |  | 1.07 ± 0.32 | 
BT sIgG down | 1.54 ± 0.34 |  | 1.78 | 1.3 | 
4H MCP1 down | 1.78 | 1.78 |  |  | 
IMphg IL8 down |  |  | 1.54 ± 0.34 |  | 
hDFCGF MIG down | 1.3 | 1.07 ± 0.32 |  | 1.3 | 1.78
BF4T CD90 down | 1.78 | 1.3 |  |  | 
KF3CT TIMP2 down | 1.3 | 1.78 |  |  | 
IMphg CD69 down |  | 1.78 | 1.3 | 1.3 | 
BF4T VCAM1 down | 1.78 | 1.3 |  |  | 

Test System | LOEC (log10 uM) [1] | LOEC (log10 uM) (Perfluorodecanoic acid) | LOEC (log10 uM) [2] | LOEC (log10 uM) [3] | LOEC (log10 uM) [4]
CASM3C VCAM1 down | 1.3 | 1.78 |  | 1.07 ± 0.32 | 
SAg Eselectin down | 1.78 | 1.78 |  |  | 
BE3C ITAC down | 1.78 | 1.3 |  | 1.78 | 
CASM3C LDLR up |  |  | 1.54 ± 0.34 |  | 
LPS MCP1 down | 1.54 ± 0.34 | 1.78 |  | 1.78 | 
3C VCAM1 down | 1.3 | 1.78 |  |  | 
KF3CT IL1a down | 1.54 ± 0.34 | 1.78 |  | 1.3 | 
KF3CT IP10 down | 1.54 ± 0.34 | 1.3 | 1.78 | 1.3 | 
3C TissueFactor up |  |  | 1.78 |  | 
SAg CD69 down | 1.78 | 1.78 |  | 1.54 ± 0.34 | 
BT xTNFa down | 1.3 |  | 1.54 ± 0.34 | 1.3 | 1.78
LPS IL1a down |  | 1.78 | 1.54 ± 0.34 | 1.3 | 
SAg SRB down | 1.78 | 1.78 | 1.78 | 1.3 | 
IMphg MIP1a down |  | 1.78 | 1.78 |  | 
BE3C PAI1 down | 1.78 | 1.3 |  | 1.78 | 
hDFCGF EGFR down | 1.3 |  |  |  | 
hDFCGF TIMP2 down | 1.3 | 1.3 |  |  | 1.78
4H Pselectin down | 1.78 | 1.78 | 1.78 | 1.54 ± 0.34 | 
BT PBMCCytotoxicity down | 1.3 |  |  |  | 1.78
BT Bcell Proliferation down | 1.3 |  |  | 1.54 ± 0.34 | 
3C HLADR down | 1.54 ± 0.34 | 1.78 |  | 1.78 | 1.78
LPS Thrombomodulin up |  |  |  | 0.573 ± 0.39 | 
LPS MCSF down | 1.78 | 1.78 | 1.78 |  | 
CASM3C Thrombomodulin up |  |  |  | 1.3 | 
SAg IL8 down | 1.54 ± 0.34 | 1.78 |  |  | 
IMphg MCP1 down | 1.78 | 1.78 |  |  | 

Test System | LOEC (log10 uM) [1] | LOEC (log10 uM) (Perfluorodecanoic acid) | LOEC (log10 uM) [2] | LOEC (log10 uM) [3] | LOEC (log10 uM) [4]
BF4T MMP3 up |  |  | 1.78 | 1.78 | 
IMphg SRB.Mphg down |  | 1.78 | 1.04 ± 1 |  | 
BE3C tPA down | 1.78 | 1.3 | 1.78 |  | 
3C Eselectin down | 1.54 ± 0.34 | 1.78 |  |  | 
IMphg SRB down | 1.78 | 1.78 | 1.78 | 1.78 | 
BF4T MMP1 down |  | 1.3 |  |  | 
hDFCGF ICAM1 down | 1.3 | 1.78 |  |  | 1.78
4H VCAM1 down | 1.78 | 1.78 |  |  | 
hDFCGF TIMP1 down | 1.3 | 1.78 |  |  | 1.78
CASM3C HLADR down | 1.54 ± 0.34 |  |  | 1.54 ± 0.34 | 
BE3C MIG down | 1.78 | 1.3 |  | 1.78 | 
LPS TNFa down | 1.54 ± 0.34 | 1.78 | 1.3 |  | 
SAg PBMCCytotoxicity down | 1.3 | 1.78 |  | 1.54 ± 0.34 | 1.78
3C MCP1 down | 1.54 ± 0.34 | 1.78 |  | 1.3 | 1.78
LPS VCAM1 down | 1.54 ± 0.34 | 1.78 | 1.78 | 1.78 | 
LPS CD40 down | 1.78 | 1.78 | 1.78 |  | 1.78
CASM3C uPAR down | 1.78 |  |  | 1.54 ± 0.34 | 
SAg MIG down | 1.78 | 1.78 |  |  | 
BE3C IL1a down | 1.78 | 1.3 |  | 1.54 ± 0.34 | 
KF3CT MIG down | 1.54 ± 0.34 | 1.78 |  | 1.78 | 
CASM3C MIG down | 1.3 |  |  | 1.3 | 
LPS Thrombomodulin down | 1.78 | 1.78 |  |  | 
CASM3C IL6 down | 1.78 |  |  |  | 
CASM3C PAI1 down | 1.78 |  |  |  | 
4H SRB down | 1.78 | 1.78 |  | 1.54 ± 0.34 | 
SAg CD38 down | 1.54 ± 0.34 | 1.78 |  | 1.3 | 

Test System | LOEC (log10 uM) [1] | LOEC (log10 uM) (Perfluorodecanoic acid) | LOEC (log10 uM) [2] | LOEC (log10 uM) [3] | LOEC (log10 uM) [4]
KF3CT uPA down | 1.54 ± 0.34 | 1.78 |  | 1.78 | 
BF4T MMP9 down | 1.78 | 1.3 | 1.78 |  | 
4H VEGFRII down | 1.78 | 1.78 |  |  | 
BF4T uPA down | 1.78 | 1.3 |  |  | 
CASM3C LDLR down | 1.78 |  |  | 1.07 ± 0.32 | 
SAg CD40 down | 1.78 | 1.78 | 1.78 | 1.78 | 
BF4T MMP3 down | 1.78 | 1.54 ± 0.34 |  |  | 
IMphg ESelectin down |  | 1.78 |  |  | 
LPS CD69 down | 1.78 | 1.78 |  | 0.845 | 
BT xIL6 down | 1.3 |  |  | 1.78 | 
4H Eotaxin3 down | 1.54 ± 0.34 | 1.78 | 1.78 | 1.54 ± 0.34 | 
KF3CT MMP9 down | 1.3 | 1.07 ± 0.32 | 1.78 | 1.54 ± 0.34 | 
MyoF Decorin up |  |  | 1.07 ± 0.32 |  | 
BE3C ICAM1 down | 1.78 | 1.3 |  |  | 
3C ICAM1 down | 1.78 | 1.78 |  |  | 1.78
MyoF CollagenIV down | 1.78 |  |  |  | 
BE3C Keratin818 down | 1.78 | 1.3 |  |  | 
LPS TissueFactor down | 1.78 | 1.78 |  |  | 
LPS SRB down | 1.78 | 1.78 | 1.78 | 1.54 ± 0.34 | 
BE3C IL8 down | 1.78 | 1.3 | 1.54 ± 0.34 | 1.3 | 
hDFCGF CollagenIII down | 1.3 | 1.78 | 1.07 ± 0.32 |  | 
IMphg MIP1a up | 1.78 |  |  | 1.3 | 
MyoF Decorin down | 1.78 | 1.78 |  |  | 
3C TissueFactor down | 1.54 ± 0.34 | 1.78 |  |  | 1.78

From the supplement of paper PMC10331698
